# Structures can show the parent of a compound that is named as a salt.
# What was measured:
# Assay type in all cases: biochemical
# human factor Xa = target: T1, human factor Xa (Homo sapiens, UniProt P00742); experiment: Inhibition of Factor Xa hydrolysis of chromogenic substrate S2222 (Ki); settings: purified human factor Xa, 0.10 M sodium phosphate buffer; for Ki: pH 7.5, read-out: Ki values for inhibition of Serine Proteases: Factor Xa
# T1 construct: 0.2-0.5 nM human thrombin or human factor Xa; purchased Enzyme Research Laboratories, South Bend, Ind
# T1 sequence (P00742 235-488 limits assumed): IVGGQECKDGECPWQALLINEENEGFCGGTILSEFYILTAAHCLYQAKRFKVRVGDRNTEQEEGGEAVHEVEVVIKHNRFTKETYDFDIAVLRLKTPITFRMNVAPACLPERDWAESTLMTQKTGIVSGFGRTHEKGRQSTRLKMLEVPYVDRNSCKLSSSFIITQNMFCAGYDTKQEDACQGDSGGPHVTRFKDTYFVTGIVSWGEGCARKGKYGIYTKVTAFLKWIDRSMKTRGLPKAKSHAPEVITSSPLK
# T1 sequence (P00742 41-179 partner limits assumed): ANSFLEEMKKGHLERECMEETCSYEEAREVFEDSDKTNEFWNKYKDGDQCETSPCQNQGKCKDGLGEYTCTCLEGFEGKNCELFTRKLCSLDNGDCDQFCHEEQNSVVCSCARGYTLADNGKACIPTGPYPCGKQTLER
# Procedure: (§1) The effectiveness of compounds of the present invention as inhibitors of blood coagulation proteases was determined using purified human proteases and synthetic substrates following procedures similar to those described in Kettner et al. (1990).
# (§2) For these assays, the rate of enzymatic (thrombin, Factor Xa, and Factor VIIa) hydrolysis of chromogenic substrates (S2238 (H-D-Phe-Pip-Arg-pNA), S2222, and S2288, respectively; Kabi Pharmacia, Franklin, Ohio) was measured both in the absence and presence of compounds of the present invention. […] A decrease in the rate of absorbance change at 405 nm in the presence of inhibitor is indicative of enzyme inhibition. The results of this assay are expressed as inhibitory constant, Ki.
# (§3) Thrombin and Xa determinations were made in 0.10 M sodium phosphate buffer, pH 7.5, containing 0.20 M NaCl, and 0.5% PEG 8000. VIIa determinations were made in 0.05 M tris buffer, pH 7.6, containing 0.10 M NaCl, 4 mM CaCl2, and 0.1% bovine serum albumin.
# (§4) Reactions were allowed to go for 30 minutes and the velocities (rate of absorbance change vs time) were measured in the time frame of 25-30 minutes. The following relationship was used to calculate Ki values. [formula] where: vo is the velocity of the control in the absence of inhibitor;
# (§5) vs is the velocity in the presence of inhibitor;
# (§6) I is the concentration of inhibitor;
# (§7) Ki is the dissociation constant of the enzyme: inhibitor complex;
# (§8) S is the concentration of substrate;
# (§9) Km is the Michaelis constant.
# human factor VIIa = target: T2, human factor VIIa (Homo sapiens, UniProt P08709); experiment: Inhibition of Factor VIIa hydrolysis of chromogenic substrate S2288 (Ki); settings: purified human factor VIIa, 0.05 M tris buffer; for Ki: pH 7.6, read-out: Ki values for inhibition of Serine Proteases: Factor VIIa; for Ki values for inhibition of Serine Proteases: Factor VIIa: pH 7.6
# T2 construct: 50 nM human factor VIIa (BiosPacific, Emeryville, Calif.); purchased BiosPacific, Emeryville, Calif
# T2 sequence (P08709 213-466 limits assumed): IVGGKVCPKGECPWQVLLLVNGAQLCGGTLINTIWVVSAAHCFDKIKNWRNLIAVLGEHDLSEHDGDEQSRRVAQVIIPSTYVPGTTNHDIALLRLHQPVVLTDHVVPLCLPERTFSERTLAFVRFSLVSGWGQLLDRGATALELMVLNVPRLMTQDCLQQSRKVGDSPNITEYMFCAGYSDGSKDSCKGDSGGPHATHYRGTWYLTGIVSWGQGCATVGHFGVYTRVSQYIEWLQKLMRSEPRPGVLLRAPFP
# T2 sequence (P08709 61-212 partner limits assumed): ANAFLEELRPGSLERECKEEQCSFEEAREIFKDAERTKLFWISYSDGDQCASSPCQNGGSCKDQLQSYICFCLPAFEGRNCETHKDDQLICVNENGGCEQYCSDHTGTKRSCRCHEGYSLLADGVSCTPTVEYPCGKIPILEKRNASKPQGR
# Procedure: as §1, §2, §3, §4, §5, §6, §7, §8, §9
# human thrombin = human thrombin (Homo sapiens, UniProt P00734); experiment: Inhibition of thrombin hydrolysis of chromogenic substrate S2238 (Ki); parameters: 0.2-0.5 nM human thrombin or human factor Xa; purchased Enzyme Research Laboratories, South Bend, Ind; settings: purified human thrombin, 0.10 M sodium phosphate buffer, pH 7.5, read-out: Ki values for inhibition of Serine Proteases: Trombin
# Procedure: as §1, §2, §3, §4, §5, §6, §7, §8, §9
Molecule,Ki (human factor Xa) [nM],Ki (human factor VIIa) [nM],Ki (human thrombin) [nM],Ki values for inhibition of Serine Proteases: Factor VIIa (human factor VIIa),Ki values for inhibition of Serine Proteases: Factor Xa (human factor Xa; pH 7.5)
"CN(CC(=O)NC(CCCNC(=N)N)B(O)O)C(=O)c1ccccc1Sc1ccccc1C#N (stereo not drawn) [Example 75.3.1, (2-(2-Cyano)-Thiophenyl)-Benzoyl-Sar-boroArg--OH HCl]",–,< 500,–,–,–
2-(Benzyl)-Benzoyl-Sar-Lys--C(=O)--NHNH2 2 HCl [Example 70.4.2],< 50000,–,< 50000,inactive,–
CN(CC(=O)NC(CCCCN=[N+]=[N-])B1OC2CC3CC(C3(C)C)C2(C)O1)C(=O)c1ccccc1Sc1ccccc1C#N (stereo not drawn) [Example 62.2.3],< 50000,< 50000,< 50000,–,–
"CN(CC(=O)NC(CCCN)B1OC2CC3CC(C3(C)C)C2(C)O1)C(=O)c1ccccc1Sc1ccccc1C#N (stereo not drawn) [Example 62.3.1, (2-(2-Cyano)-Thiophenyl)-Benzoyl-Sar-boroOrn-C10H16 HCl]",< 50000,< 50000,< 50000,–,–
2-(2-(Trifluoromethyl)-Benzyl)-Benzoyl-Sar-Lys--C(=O)--NHNH2 2 HCl [Example 71.4.2],–,–,< 50000,–,–
Hydrocinnamoyl-Sar-Lys--C(=O)--CH3 HCl [Example 61.2.3],–,–,–,Inactive,Inactive
"CC(C)(CN(CC(=O)NC(CCCCN)B1OC2CC3CC(C3(C)C)C2(C)O1)C(=O)CCc1ccccc1)c1ccccc1 (stereo not drawn) [Example 54.3.3, Hydrocinnamoyl-[N-(2,2-(Dimethyl)-Phenethyl)-Gly]-boroLys-C10H16 HCl]",< 50000,< 500,–,–,–
Hydrocinnamoyl-[N-(Cyclopropyl)-Gly]-boroLys(CH=NH)--OH HCl [Example 76.1.1],–,–,< 500,–,–
"CC(C)(C)OC(=O)NC(CC(=O)O)C(=O)N(CCc1ccccc1)CC(=O)NC(CCCCN)B1OC2CC3CC(C3(C)C)C2(C)O1 (stereo not drawn) [Example 69.2.2, Boc-Asp-[N-(Phenethyl)-Gly]-boroLys-C10H16]",–,< 500,< 500,–,–
"CC(C)(C)OC(=O)NC(CCC(=O)O)C(=O)N(CCc1ccccc1)CC(=O)NC(CCCCN)B1OC2CC3CC(C3(C)C)C2(C)O1 (stereo not drawn) [Example 69.2.1, Boc-Glu-[N-(Phenethyl)-Gly]-boroLys-C10H16]",–,< 500,< 500,–,–
"CC(C)(CN(CC(=O)NC(CCCN)B1OC2CC3CC(C3(C)C)C2(C)O1)C(=O)CCc1ccccc1)c1ccccc1 (stereo not drawn) [Example 60.1.1, Hydrocinnamoyl-[N-(2,2-(Dimethyl)-Phenethyl)-Gly]-boroOrn-C10H16 HCl]",< 50000,–,< 500,–,–
Hydrocinnamoyl-[N-(Cyclopropyl)-Gly]-boroOrn(CH=NH)-C10H16 HCl [Example 58.4.2],–,–,< 50000,–,–
"CC(C)(CC(=O)O)CC(=O)N(CCc1ccccc1)CC(=O)NC(CCCCN)B(O)O (stereo not drawn) [Example 66.1.2, Glutaryl(3,3-Dimethyl)-[N-(Phenethyl)-Gly]-boroLys--OH]",–,< 50000,< 500,–,–
CN(CC(=O)N(CCc1ccccc1)CC(=O)NC(CCCCN)B(O)O)S(C)(=O)=O (stereo not drawn) [Example 68.4.2],–,–,< 500,–,–
"Cc1cc(C)cc(CCN(CC(=O)NC(CCCCN)B2OC3CC4CC(C4(C)C)C3(C)O2)C(=O)CCc2ccccc2)c1 (stereo not drawn) [Example 54.4.1, Hydrocinnamoyl-{N-[2-(3,5-dimethylphenyl)-ethyl]-Gly}-boroLys-C10H16 HCl]",< 50000,< 50000,–,–,–

# The next lines start with the values.
Ki (human factor Xa) [nM],Ki (human factor VIIa) [nM],Ki (human thrombin) [nM],Ki values for inhibition of Serine Proteases: Factor VIIa (human factor VIIa),Ki values for inhibition of Serine Proteases: Factor Xa (human factor Xa; pH 7.5),Molecule
< 50000,< 50000,< 500,–,–,"NCCCCC(NC(=O)CN(CCc1ccccc1)C(=O)CCC(=O)O)B(O)O (stereo not drawn) [Example 68.3.1, Succinyl-[N-(Phenethyl)-Gly]-boroLys--OH]"
< 50000,< 50000,< 500,–,–,"CC1(C)C2CC3OB(C(CCCCN)NC(=O)CN(C(=O)CCC(=O)O)C(=O)CCc4ccccc4)OC3(C)C1C2 (stereo not drawn) [Example 54.2.3, Hydrocinnamoyl-[N-(Succinyl)-Gly]-boroLys-C10H16]"
< 50000,< 50000,< 500,–,–,"COC(=O)CCC(=O)N(CC(=O)NC(CCCCN)B1OC2CC3CC(C3(C)C)C2(C)O1)C(=O)CCc1ccccc1 (stereo not drawn) [Example 54.3.1, Hydrocinnamoyl-[N-(Methyl Succinyl)-Gly]-boroLys-C10H16 HCl]"
< 500,< 500,< 500,–,–,"CC(C)(CN(CC(=O)NC(CCCNC(=N)N)B1OC2CC3CC(C3(C)C)C2(C)O1)C(=O)CCc1ccccc1)c1ccccc1 (stereo not drawn) [Example 56.1.1, Hydrocinnamoyl-[N-(2,2-(Dimethyl)-Phenethyl)-Gly]-boroArg-C10H16 HCl]"
< 500,< 500,< 500,–,–,"CC(C)(CN(CC(=O)NC(CCCNC(=N)N)B(O)O)C(=O)CCc1ccccc1)c1ccccc1 (stereo not drawn) [Example 55.1.1, Hydrocinnamoyl-[N-(2,2-(Dimethyl)-Phenethyl)-Gly]-boroArg--OH HCl]"
< 500,< 500,< 500,–,–,"Hydrocinnamoyl-[N-(2,2-(Dimethyl)-Phenethyl)-Gly]-boroOrn(CH=NH)--OH HCl [Example 57.1.1]"
< 500,< 50000,< 500,–,–,(2-(2-Cyano)-Thiophenyl)-Benzoyl-Sar-boroLys(CH=NH)-C10H16 HCl [Example 62.4.2]
–,–,< 500,–,–,"CC(c1ccccc1)N(CC(=O)NC(CCCCN)B1OC2CC3CC(C3(C)C)C2(C)O1)C(=O)CNS(C)(=O)=O (stereo not drawn) [Example 67.3.2, Methanesylfonyl-Gly-[N-(N-(Methyl)-Benzyl)-Gly]-boroLys-C10H16 HCl]"
–,–,< 500,–,–,Hydrocinnamoyl-[N-(N(CH3)2)-Gly]-boroLys--C10H16 HCl [Example 50.1.3]
< 500,< 500,< 500,–,–,Hydrocinnamoyl-[N-(N-(Methyl)-Benzyl)-Gly]-boroLys--OH HCl [Example 53.2.2]
–,–,< 500,–,–,"Cc1cccc(CCN(CC(=O)NC(CCCCN)B2OC3CC4CC(C4(C)C)C3(C)O2)C(=O)CCc2ccccc2)c1 (stereo not drawn) [Example 51.1.2, Hydrocinnamoyl-[N-(3-(Methyl)-Phenethyl)-Gly]-boroLys-C10H16 HCl]"
–,–,< 500,–,–,"CC1(C)C2CC3OB(C(CCCN)NC(=O)CN(C(=O)CCc4ccccc4)C4CC4)OC3(C)C1C2 (stereo not drawn) [Example 60.4.2, Hydrocinnamoyl-[N-(Cyclopropyl)-Gly]-boroOrn-C10H16 HCl]"
–,< 50000,< 500,–,–,"COC(=O)CC(C)(C)CC(=O)N(CCc1ccccc1)CC(=O)NC(CCCCN)B(O)O (stereo not drawn) [Example 66.1.3, Methyl Glutaryl(3,3-Dimethyl)-[N-(Phenethyl)-Gly]-boroLys--OH HCl]"
–,–,< 500,–,–,"CN(CC(=O)N(CCc1ccccc1)CC(=O)NC(CCCCN)B1OC2CC3CC(C3(C)C)C2(C)O1)S(C)(=O)=O (stereo not drawn) [Example 69.4.2, Methanesulfonyl-Sar-[N-(Phenethyl)-Gly]-boroLys-C10H16 HCl]"
–,< 50000,< 500,–,–,"COC(=O)CCC(NC(=O)OC(C)(C)C)C(=O)N(CCc1ccccc1)CC(=O)NC(CCCCN)B1OC2CC3CC(C3(C)C)C2(C)O1 (stereo not drawn) [Example 69.2.3, Boc-Glu(OCH3)-[N-(Phenethyl)-Gly]-boroLys--C10H16 HCl]"
–,–,< 500,–,–,Hydrocinnamoyl-[N-(Cyclopropyl)-Gly]-boroLys(CH=NH)-C10H16 HCl [Example 77.1.1]
–,–,< 500,–,–,"CC(C)(CN(CC(=O)NC(CCCCN)B1OC2CC3CC(C3(C)C)C2(C)O1)C(=O)CCc1ccccc1)c1ccccc1 (stereo not drawn) [Example 54.1.1, Hydrocinnamoyl-[N-(2,2-(Dimethyl)-Phenethyl)-Gly]-boroLys-C10H16 HCl]"

# Source: patent publication US6060462A, “Electrophilic peptide analogs as inhibitors of trypsin-like enzymes” (DuPont Pharmaceuticals Company, priority 1997, dated 2000)
